According to ChEMBL document CHEMBL1157539, “Thousands of chemical starting points for antimalarial lead identification” (Nature, 2010):

Test system: Plasmodium falciparum
Assay: GSK_TCMDC: Inhibition of Plasmodium falciparum 3D7 in whole erythrocytes, using parasite LDH activity as an index of growth.
Format: functional, organism-based

| Compound | XC50 (Plasmodium falciparum, 3D7) [nM] | XC50 [nM] |
| --- | --- | --- |
| Cc1cc(F)ccc1-c1nc(NCCCN2CCCC2=O)nc2c1ccc(=O)n2-c1c(F)cccc1F | 1020 |  |
| C=C[C@H]1CN(CCCCCCC)CC[C@H]1C[C@@H](Cc1ccnc2ccc(OC)cc12)OC(=O)[C@](OC)(c1ccccc1)C(F)(F)F | 876 |  |
| NCc1ccc(CNCc2cccc(-c3cccc(-c4nc5ccccc5[nH]4)c3)c2)cc1 | 489 |  |
| O=C(NC1CC1)c1cnc(N2CCC(COc3cccc(F)c3)CC2)c(Cl)c1 | 1200 |  |
| COc1ccc(-c2cccc(NC(=O)c3cccc(Cl)c3)c2)cc1CN1CCN(C)CC1 | 760 |  |
| COc1ccc(CNC2CCN(C)CC2)cc1-c1ccc(S(=O)(=O)NCCc2ccccn2)cc1 | 1090 |  |
| CCC(Cc1cnc2nc(N)nc(N)c2n1)c1ccc(C(=O)O)cc1 (configuration not stated) | 250 |  |
| CC(=O)Nc1ncc(C(=O)Nc2cccc(-c3ccc(-c4nc5cc(C(F)(F)F)ccc5[nH]4)s3)c2)s1 | 398 |  |
| Cc1ccc(CN2CCC(C(=O)Nc3ccc(-c4cc5ccccc5[nH]4)cc3)CC2)o1 | 1420 |  |
| COc1ccc2nccc([C@@H](O)CN3CCC(NS(=O)(=O)c4cc(Br)c(Br)s4)CC3)c2c1 | 851 |  |
| O=C(c1ccc(F)c2ccccc12)N1CCc2cc3nccc(N4CCN5CCC[C@H]5C4)c3cc21 | 1000 |  |
| COC(=O)c1ccc(CCC(C)NCC(O)c2cccc(Cl)c2)cc1 (configuration not stated) | 670 |  |
| COc1ccc2nccc([C@@H](O)CN3CCC(NC(=O)C(c4cc5ccccc5o4)N4CCC(Cc5ccccc5)CC4)CC3)c2c1 (some centres not stated) | 247 |  |
| Cc1ccc(NC(=O)c2ccnc(N3CCN(c4ccncc4)CC3)c2)cc1F | 873 |  |
| O=C(Nc1cccc(CCNCc2ccccc2)c1)Nc1cccc2ccccc12 | 729 |  |
| COc1ccc2nccc([C@@H](O)CN3CCC(NC(=O)c4ccc(OC)c(N)c4)CC3)c2c1 | 715 |  |
| COc1ccc(C=NN=c2cc(C)[nH]c3ccccc23)c2ccccc12 | 752 |  |
| NC(=O)c1ccsc1NC(=O)CNC(c1ccc(F)cc1)c1cccs1 (configuration not stated) | 947 |  |
| Cc1ccccc1Nc1nc(NCc2ccccc2)nc2ccccc12 | 1020 |  |
| O=C(CCc1nc2c(cnn2-c2ccccc2)c(=O)[nH]1)NC1CCSc2ccccc21 (configuration not stated) | 1060 |  |
| O=C(Nc1ccc(N2CCN(Cc3ccccc3)CC2)cc1)c1cccs1 | 769 |  |
| Cc1csc(-c2nc(NCc3cccnc3)ncc2-c2ccsc2)n1 | 1190 |  |
| CCCN(CC1CC1)c1ncc(-c2cccc(CNCCC3CCCN3C)c2)cn1 (configuration not stated) | 749 |  |
| CC(C)(CNC(=O)/C=C/c1ccc(Cl)c(Cl)c1)CNc1cc(=O)c2ccccc2[nH]1 | 856 |  |
| CC[C@H]1CN2CC[C@@H]1C[C@H]2[C@H](O)c1cc(N2CCC(C(N)=O)CC2)nc2ccc(OC)cc12 | 773 |  |

| Compound | XC50 (Plasmodium falciparum, 3D7) [nM] | XC50 [nM] |
| --- | --- | --- |
| Cc1cccc2nc(-c3cccc(-c4ccc(NC(=O)NCc5cccc(F)c5)cc4)c3)[nH]c12 | 236 |  |
| Nc1nccc2ccc(-c3ccc4nccn4c3)cc12 | 101 |  |
| CN(C)CCC(O)(c1ccc(Br)cc1)c1cccnc1 (configuration not stated) | 831 |  |
| CC(C)NCc1ccc(-c2cccc(NC(=O)c3ccc(F)cc3)c2)cc1 | 881 |  |
| Cc1[nH]c(C)c(-c2ccc(OCCOc3ccc(C(F)(F)F)cn3)cc2)c(=O)c1Br | 138 |  |
| COc1ccc(NC(=O)NC2CCN(c3ccnc4cc(Cl)ccc34)C2)cc1 (configuration not stated) | 99.3 |  |
| CC1CNC(c2cccc(NC(=O)Nc3cccc(C4=NC(C)CN4)c3)c2)=N1 (configuration not stated) | 359 |  |
| C[C@@H](C(=O)N1CCOCC1)N1CC[C@H](NS(=O)(=O)c2ccc3ccnc(N)c3c2)C1=O | 1500 |  |
| Cc1ccccc1C1CCN(C2CCC(NC(=O)/C=C/c3ccc(OC(F)(F)F)cc3)CC2)CC1 (configuration not stated) | 857 |  |
| O=C(Cn1c(CCc2cccc(F)c2F)nc(=O)c2ccccc21)N(CCCN1CCCCC1)Cc1ccc(-c2ccc(C(F)(F)F)cc2)cc1 | 762 |  |
| COc1cc(C(=O)NC2CCc3ccccc32)cc(Cl)c1OC (configuration not stated) | 1100 |  |
| Cc1ccc(O)c(-c2cc(C(=O)Nc3ccc(S(=O)(=O)N4CCCCC4)cc3)[nH]n2)c1 | 805 |  |
| O=C(CN1CCN(S(=O)(=O)C=Cc2ccccc2)CC1)Nc1cc(C(F)(F)F)ccc1Cl | 776 |  |
| O=C(Nc1ccc(-c2ccc(-c3nc4cc(C(F)(F)F)ccc4[nH]3)cc2)cc1)Nc1ccc(F)c(F)c1F | 217 |  |
| COc1ccc(NC(=O)c2ccc3[nH]c(-c4ccc(Cl)cc4)cc3c2)cc1OCCN(C)C | 813 |  |
| O=C(Nc1ccc(Cl)cc1)Nc1ccc2c(c1)N1CCN=C1S2 | 592 |  |
| COc1cccc(C2=CC(C)(C)Oc3cc(OCCN(C)C)ccc32)c1 | 794 |  |
| CC=Cc1cc(Cc2c[nH]c(=N)[nH]c2=N)cc(CCC)c1OC | 783 |  |
| COc1ccc(-c2cc(C(=O)Nc3ccc(CCCN(C)Cc4ccc(OC)c(OC)c4)cc3)c3ccccc3n2)cc1 | 698 |  |
| Cc1cccc(CN2CCCC3(CCN(Cc4ccccc4O)C3)C2)c1 (configuration not stated) | 801 |  |
| O=C(NCc1ccccc1)OC1CNCCC1c1ccc(C(O)Cc2ccccc2)cc1 (configuration not stated) | 576 |  |
| CC(C)(CNC(=O)C1CCN(Cc2ccoc2)CC1)c1nc(-c2ccc(Cl)c(O)c2)c(-c2ccncc2)[nH]1 | 866 |  |
| O=C(NCCCCCN1CCC(c2c[nH]c3ccccc23)CC1)Nc1ccc(I)c(Cl)c1 | 969 |  |
| CCc1ccc(O)c(-c2cc(C(=O)Nc3cccnc3)[nH]n2)c1 | 689 |  |
| COc1cc(Nc2nccc(Nc3ccc4c(C)n[nH]c4c3)n2)cc2ccccc12 | 699 |  |

| Compound | XC50 (Plasmodium falciparum, 3D7) [nM] | XC50 [nM] |
| --- | --- | --- |
| CN1CCC(N2CCN(Cc3cccc(-c4ccc(-c5nc6ccccc6[nH]5)cc4)c3)CC2)CC1 | 156 |  |
| CCc1ccc(NC(=O)c2cccc(CN3CCCN(CC4CCCCC4)CC3)c2)cc1 | 952 |  |
| COc1c(Br)cc(Br)cc1-c1ccc(CN2C3CCCC2CCC3)[nH]1 | 1110 |  |
| Cc1nc2c(c(O)c1Cl)-c1ccc(Oc3cccc(C(F)(F)F)c3)cc1C2=O |  | 36.9 |
| CN1CCC(C(=O)Nc2ccc(-c3cccc(-c4nc5cc(F)ccc5[nH]4)c3)cc2)CC1 | 792 |  |
| Cc1noc(C)c1-c1cccc(CNCc2cccc(-c3csc(-c4nc5ccccc5[nH]4)c3)c2)c1 | 263 |  |
| CC(=O)Nc1ccc(C#Cc2ccc(-c3c(C)[nH]c(C)c(Cl)c3=O)cc2)cc1 | 462 |  |
| Cc1cccc(C(=O)Nc2ccnc(N(C)C3CCN(CC(C)C)CC3)c2)c1 | 869 |  |
| N=C(Nc1cccc(Cc2ccccc2)n1)Nc1ncccn1 | 928 |  |
| COc1ccc(CN2CCN(C(=O)c3cccs3)CC2)c(O)c1 | 838 |  |
| Cc1[nH]c2ccccc2c1C1=CCN(CCCCC2(C)C(=O)Nc3ccccc32)CC1 (configuration not stated) | 232 |  |
| CC1(C)N=C(N)N=C(N)N1c1ccc(Oc2ccc(Cl)cc2)c(Cl)c1 | 78.9 |  |
| Cn1nc(-c2cccc(CNCCc3cccs3)c2)c2cnc(NC3CCCC3)nc21 | 1890 |  |
| CN(C)Cc1cccc(-c2ccc(NC(=O)c3ccc4c(=O)n(Cc5ccoc5)cnc4c3)cc2)c1 | 770 |  |
| Cc1cccc2nc(-c3ccc(-c4cccc(CN5CCCC(O)C5)c4)s3)[nH]c12 (configuration not stated) | 942 |  |
| CC1(C)NC(N)=NC(=N)N1OCc1ccc2ccccc2c1CON1C(=N)N=C(N)NC1(C)C | 663 |  |
| COC(=O)COc1cc(C(=O)NCCCCN2CCC(c3ccc4c(c3OC)CCCC4)CC2)ccc1-c1ccc(Cl)cc1 | 257 |  |
| CCn1c(Sc2ccc(C#N)c([N+](=O)[O-])c2)nnc1-c1ccc(Cl)cc1 | 552 |  |
| Cc1cc(NC(=O)NC(=N)N)ccc1Cl | 698 |  |
| O=C(/C=C/c1ccc(Cl)c(Cl)c1)NCCCCCN1CCC(CCNC(=O)/C=C/c2cc(C(F)(F)F)ccc2F)CC1 | 765 |  |
| COc1cc2nc(NCCn3nc(C)cc3C)nc(NCCc3ccccc3)c2cc1OC | 436 |  |
| CCCCCCCNC(=O)NCC1CCCN(CCCCCNC(=O)/C=C/c2ccc(Cl)c(Cl)c2)C1 (configuration not stated) | 1040 |  |
| COc1ccccc1C1CN(CCNC(=O)c2nc(C)c[nH]2)Cc2ccccc2O1 (configuration not stated) | 797 |  |
| CC(C)N1CCC(N(Cc2ccc(-c3ccc(C(F)(F)F)cc3)cc2)C(=O)Cn2c(CCc3cccc(F)c3F)nc(=O)c3cccnc32)CC1 | 642 |  |
| O=C(Cc1c[nH]cn1)Nc1cccc(-c2ccc(-c3nc4cc(F)ccc4[nH]3)s2)c1 | 660 |  |

| Compound | XC50 (Plasmodium falciparum, 3D7) [nM] | XC50 [nM] |
| --- | --- | --- |
| C[C@H](Cc1ccc(OCCCCCCOc2ccc(C[C@@H](C)NC(=O)[C@H](O)c3cccc(Cl)c3)cc2)cc1)NC[C@H](O)c1cccc(Cl)c1 | 381 |  |
| CCC(C)CN1CCN(c2cc(NC(=O)c3cccs3)ccn2)C(C)C1 (configuration not stated) | 997 |  |
| CC(C)CSc1cc(C(=O)Nc2cc(Cl)ccc2O)ccn1 | 670 |  |
| c1ccc(COc2ccc(COc3ccc(Cn4ccnc4)cc3)cc2)cc1 | 947 |  |
| N#Cc1cccc(CN(Cc2ccc(Cl)c(Cl)c2)S(=O)(=O)c2cccc([N+](=O)[O-])c2)c1 | 808 |  |
| Cc1c(CCC#N)c(NCc2ccccc2)n2c(nc3ccccc32)c1C#N | 876 |  |
| CCNc1cc(C)nc(Nc2ccc(F)cc2)n1 | 798 |  |
| Cc1cccc(NC(=O)c2cnc(N3CCN(c4ccncc4)CC3)c(Cl)c2)c1 | 678 |  |
| CC(=O)c1ccc(NC(=O)NNC(=O)c2ccc(CCN3CCC(c4nc(COCC(F)(F)F)c(-c5ccc(F)cc5)o4)CC3)cc2)cc1 | 835 |  |
| O=C1COc2ccc(CNC3CCC(O)(CCc4ccnc5cc6c(cc45)OCCO6)CC3)nc2N1 (configuration not stated) | 931 |  |
| COc1ccc(S(=O)(=O)N2CCC(NS(=O)(=O)c3ccc(F)cc3)CC2)cc1 | 1330 |  |
| O=C(NC1CCN(Cc2ccccc2)CC1)c1ccc(CNC2CCN(Cc3ccccc3)CC2)cc1 | 872 |  |
| Cc1cccc2nc(-c3cccc(-c4ccc(CNCc5cnn(-c6ccccc6)n5)cc4)c3)[nH]c12 | 921 |  |
| COc1ccc(CN2CCCN(Cc3cccc(C(=O)Nc4ccc(C)c(F)c4)c3)CC2)cc1 | 1310 |  |
| CCOc1ccc(Br)cc1/C=C/C(=O)Nc1ccc2c(c1)CN(C)CCC2 | 824 |  |
| CCOc1cc2ncnc(Nc3ccc(OCc4ccccc4OC)c(OC)c3)c2cc1OCC | 879 |  |
| CCCc1cc(C(=O)N[C@@H](Cc2ccccc2)[C@H](O)CNC2CCOCC2)c(F)c(N2CCCCS2(=O)=O)c1 | 166 |  |
| Cc1cc(N[C@@H](Cc2ccccc2)C(=O)NC2CCCC2)nc(NCC2CCCCC2)n1 | 1170 |  |
| O=S(=O)(NCCN1CCCC1)c1ccc(-c2ccc(CNCc3ccc(F)cc3)cc2)cc1F | 1280 |  |
| CCCC(CC)n1ccc2c3c(N)nc(N)nc3ccc21 (configuration not stated) | 5.92 |  |
| C=CCOc1cccc2c1CCN(CCN1CCC(NC(=O)c3ccc(-c4ccc(Cl)cc4)cc3)CC1)C2 | 673 |  |
| c1ccc(C23NC(=Nc4nc5ccccc5[nH]4)NC2(c2ccccc2)NC(=Nc2nc4ccccc4[nH]2)N3)cc1 (configuration not stated) | 276 |  |
